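Each compound was tested at five concentrations against cells in 96-well plates for 48 hours. The concentration for full growth arrest is given as TGI.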
Columns and labels:
Experiment in all cases: growth of human tumour cells (NCI), 48 h
[1] = test system: RXF 393 renal
[2] = test system: SNB-75 CNS
[3] = test system: NCI-H23 lung
[4] = test system: SF-539 CNS
[5] = test system: SNB-19 CNS
[6] = test system: HT29 colon
[7] = test system: HCT-116 colon
[8] = test system: OVCAR-4 ovarian
[9] = test system: MOLT-4 leukemia
[10] = test system: K-562 leukemia
[11] = test system: NCI-H522 lung
[12] = test system: MCF7 breast
[13] = test system: MDA-N
[14] = test system: LOX IMVI melanoma
[15] = test system: MDA-MB-435
[16] = test system: DU-145 prostate
[17] = test system: NCI/ADR-RES ovarian
[18] = test system: EKVX NSCLC
[19] = test system: KM12 colon
[20] = test system: A498 renal

CC(=O)O[C@H]1CC[C@H]2[C@@H]3CCC4=C/C(=N/OCCN(C)C)CC[C@]4(C)[C@H]3CC[C@]12C was tested, and the TGI [1] was 27.8 µM, the TGI [2] was 19.1 µM and the TGI [3] was 25.6 µM. The TGI [4] was 7.28 µM, the TGI [5] was 22.4 µM and the TGI [6] was 6.8 µM. For the same compound, the TGI [7] was 16 µM, the TGI [8] was 23.5 µM and the TGI [9] was 13 µM. It also gave a TGI [10] greater than 21.2 µM, a TGI [11] of 22.7 µM and a TGI [12] of 17.9 µM. It also gave a TGI [13] of 14.4 µM, a TGI [14] of 11 µM and a TGI [15] of 6.42 µM. For the same compound, the TGI [16] was 31 µM, the TGI [17] was 27.8 µM and the TGI [18] was 29 µM. It also gave a TGI [19] of 18.9 µM.
CC1(C)OC[C@H](COCOP2(=O)Oc3ccc4ccccc4c3-c3c(ccc4ccccc34)O2)O1 showed a TGI [3] of 29.6 µM, a TGI [4] of 39.8 µM and a TGI [5] of 34.7 µM. For the same compound, the TGI [6] was 31.3 µM, the TGI [7] was 28.3 µM and the TGI [9] was 41.4 µM. The TGI [10] was 80.6 µM, the TGI [12] was 12.2 µM and the TGI [13] was 26.8 µM. It also gave a TGI [15] of 26.5 µM, a TGI [16] of 32.2 µM and a TGI [20] of 31 µM. The TGI [17] was 36 µM and the TGI [19] was 29.4 µM.
O=C(O/N=c1/ccc(=O)/c(=N\OC(=O)c2ccccc2)c1=O)c1ccccc1 gave a TGI [1] greater than 100 µM, a TGI [2] greater than 100 µM and a TGI [3] greater than 100 µM. For the same compound, the TGI [4] was greater than 100 µM, the TGI [5] was greater than 100 µM and the TGI [6] was greater than 100 µM. For the same compound, the TGI [7] was greater than 100 µM, the TGI [8] was greater than 100 µM and the TGI [9] was greater than 100 µM. For the same compound, the TGI [10] was greater than 100 µM, the TGI [11] was greater than 100 µM and the TGI [12] was greater than 100 µM. For the same compound, the TGI [13] was greater than 100 µM, the TGI [14] was greater than 100 µM and the TGI [15] was greater than 100 µM. It also gave a TGI [20] greater than 100 µM, a TGI [17] greater than 100 µM and a TGI [18] greater than 100 µM. It also gave a TGI [19] greater than 100 µM.
Cc1c(NC(=O)CSC(=S)N(C)C)c(=O)n(-c2ccccc2)n1C gave a TGI [1] greater than 100 µM, a TGI [2] greater than 100 µM and a TGI [3] greater than 100 µM. It also gave a TGI [4] greater than 100 µM, a TGI [5] greater than 100 µM and a TGI [6] greater than 100 µM. It also gave a TGI [7] greater than 100 µM, a TGI [8] greater than 100 µM and a TGI [9] greater than 100 µM. For the same compound, the TGI [10] was greater than 100 µM, the TGI [11] was greater than 100 µM and the TGI [12] was greater than 100 µM. The TGI [13] was greater than 100 µM, the TGI [14] was greater than 100 µM and the TGI [15] was greater than 100 µM. It also gave a TGI [16] greater than 100 µM, a TGI [17] greater than 100 µM and a TGI [18] greater than 100 µM. It also gave a TGI [19] greater than 100 µM.
For Cc1cccc(Nc2nc3ccccc3nc2NS(=O)(=O)c2ccccc2)c1, the TGI [1] was greater than 100 µM, the TGI [2] was 63.8 µM and the TGI [3] was 93.1 µM. The TGI [4] was greater than 100 µM, the TGI [5] was 91.5 µM and the TGI [6] was greater than 100 µM. It also gave a TGI [7] greater than 100 µM, a TGI [8] of 19.7 µM and a TGI [9] of 61.6 µM. For the same compound, the TGI [10] was greater than 100 µM, the TGI [11] was 73.9 µM and the TGI [12] was greater than 100 µM. It also gave a TGI [13] greater than 100 µM, a TGI [14] greater than 100 µM and a TGI [15] greater than 100 µM. The TGI [16] was greater than 100 µM, the TGI [17] was greater than 100 µM and the TGI [18] was greater than 100 µM. It also gave a TGI [19] greater than 100 µM.
With COC(=O)CSc1nc2[nH]c(SC)c(C(N)=O)c2c(=O)n1-c1ccccc1 the TGI [1] was greater than 10 µM, the TGI [2] was greater than 10 µM and the TGI [3] was greater than 10 µM. For the same compound, the TGI [6] was greater than 10 µM, the TGI [8] was greater than 10 µM and the TGI [9] was greater than 10 µM. It also gave a TGI [10] greater than 10 µM, a TGI [12] greater than 10 µM and a TGI [13] greater than 10 µM. The TGI [14] was greater than 10 µM, the TGI [15] was greater than 10 µM and the TGI [16] was greater than 10 µM. It also gave a TGI [18] greater than 10 µM and a TGI [19] greater than 10 µM.
COc1ccc(/C=C2\CCC(C)c3c2nc(N)c(C#N)c3-c2ccc(OC)c(OC)c2)cc1OC (stereo not given) was tested, and the TGI [1] was greater than 100 µM, the TGI [3] was greater than 100 µM and the TGI [4] was greater than 100 µM. The TGI [5] was greater than 100 µM, the TGI [6] was greater than 100 µM and the TGI [7] was greater than 100 µM. The TGI [9] was greater than 100 µM, the TGI [10] was greater than 100 µM and the TGI [12] was greater than 100 µM. The TGI [13] was greater than 100 µM, the TGI [14] was greater than 100 µM and the TGI [15] was greater than 100 µM. It also gave a TGI [16] greater than 100 µM, a TGI [17] greater than 100 µM and a TGI [18] of 8.53 µM. It also gave a TGI [19] greater than 100 µM.
O=C(/C=C/c1ccccc1)c1cc(C(=O)/C=C/c2ccccc2)c(O)cc1O showed a TGI [3] greater than 100 µM, a TGI [4] greater than 100 µM and a TGI [5] greater than 100 µM. The TGI [6] was greater than 100 µM, the TGI [7] was greater than 100 µM and the TGI [9] was greater than 100 µM. It also gave a TGI [12] greater than 100 µM, a TGI [13] greater than 100 µM and a TGI [14] greater than 100 µM. The TGI [15] was greater than 100 µM, the TGI [20] was 90.7 µM and the TGI [18] was greater than 100 µM.
With CC(C)OC(=O)C1(C(C)C)CCc2ccc(C(=O)CCC(=O)O)cc21 (stereo not given) the TGI [1] was greater than 100 µM, the TGI [2] was greater than 100 µM and the TGI [3] was greater than 100 µM. For the same compound, the TGI [4] was greater than 100 µM, the TGI [5] was greater than 100 µM and the TGI [6] was greater than 100 µM. For the same compound, the TGI [7] was greater than 100 µM, the TGI [8] was greater than 100 µM and the TGI [9] was greater than 100 µM. The TGI [10] was greater than 100 µM, the TGI [11] was greater than 100 µM and the TGI [12] was greater than 100 µM. It also gave a TGI [13] greater than 100 µM, a TGI [14] greater than 100 µM and a TGI [16] greater than 100 µM. For the same compound, the TGI [17] was greater than 100 µM, the TGI [18] was greater than 100 µM and the TGI [19] was greater than 100 µM.
With O=C(Cn1c(C(=O)/C=C/c2ccc(Cl)cc2)nc2ccccc21)c1ccc(Cl)cc1 the TGI [1] was 32.6 µM, the TGI [3] was 77.6 µM and the TGI [4] was 38.6 µM. For the same compound, the TGI [5] was 69.5 µM, the TGI [6] was 42.5 µM and the TGI [7] was 26.2 µM. The TGI [8] was 50.7 µM, the TGI [9] was 14.5 µM and the TGI [10] was greater than 100 µM. It also gave a TGI [12] of 30.9 µM, a TGI [13] of 61 µM and a TGI [14] of 36.5 µM. It also gave a TGI [15] of 37.5 µM, a TGI [16] of 56.1 µM and a TGI [20] greater than 100 µM. For the same compound, the TGI [17] was 63 µM, the TGI [18] was 64.5 µM and the TGI [19] was 27.6 µM.
Work on COc1c2cc([N+](=O)[O-])cc1CN(C(=O)C(F)(F)F)CCOCCN(C(=O)C(F)(F)F)C2 yielded a TGI [2] greater than 100 µM, a TGI [3] greater than 100 µM and a TGI [4] greater than 100 µM. For the same compound, the TGI [5] was greater than 100 µM, the TGI [6] was greater than 100 µM and the TGI [7] was greater than 100 µM. The TGI [8] was greater than 100 µM, the TGI [9] was greater than 100 µM and the TGI [11] was greater than 100 µM. The TGI [12] was greater than 100 µM, the TGI [13] was greater than 100 µM and the TGI [14] was greater than 100 µM. For the same compound, the TGI [15] was greater than 100 µM, the TGI [16] was greater than 100 µM and the TGI [20] was greater than 100 µM. For the same compound, the TGI [18] was greater than 100 µM and the TGI [19] was greater than 100 µM.

Source: PubChem BioAssay (NCI)
